Measured values taken from patent publication US20180271891A1, “SELECTIVE TREATMENT OF PRMT5 DEPENDENT CANCER” (THE BROAD INSTITUTE INC., priority 2015, published 2018).

Assays:
[1] = system: MTAP− and MTAP+ cell lines (isogenic pairs); assay: Cell viability IC50 measurement (Cell Titer-Glo); format: cell-based
Method: Applicants tested the ability of these inhibitors to selectively impair viability of parental MTAP− cell lines compared to isogenic lines expressing MTAP, as well as parental MTAP+ cell lines compared to isogenic CRISPR-mediated MTAP knockout lines (FIG. 17).
Cell plating densities were determined by evaluating the number of cells required to achieve 70% confluency after 12 days in culture. Cells were seeded in 100 μL of media in 96-well plates (excluding wells in the first or last row or column) using the following densities in cells per well: LU99 at 360, H647 at 100, SF-172 at 35, SU8686 at 250, MIAPACA2 at 135, H838 at 73, H2126 at 1042, HCC44 at 62, KP2 at 292, H661 at 166, and H2030 at 250. Isogenic cell line pairs were seeded at the same densities for all experiments.
Drug was administered using the HP D300 digital dispenser (Hewlett-Packard). […] Media and drug were changed every 4 days.
Isogenic cell line pairs were plated and cultured in parallel for the same time period. Luminescence was measured according to the manufacturer's instructions using the EnVision Multilabel Reader (Perkin Elmer). Luminescence data from each well was normalized to luminescence from wells containing untreated cells on that same plate. IC50 was calculated by non-linear regression using the ‘log(inhibitor) vs. response (three parameters) analysis in GraphPad Prism 6.

[2] = biological target: PRMT5 (Homo sapiens, UniProt O14744); settings: cited from earlier work
PRMT5, sequence (O14744 whole entry): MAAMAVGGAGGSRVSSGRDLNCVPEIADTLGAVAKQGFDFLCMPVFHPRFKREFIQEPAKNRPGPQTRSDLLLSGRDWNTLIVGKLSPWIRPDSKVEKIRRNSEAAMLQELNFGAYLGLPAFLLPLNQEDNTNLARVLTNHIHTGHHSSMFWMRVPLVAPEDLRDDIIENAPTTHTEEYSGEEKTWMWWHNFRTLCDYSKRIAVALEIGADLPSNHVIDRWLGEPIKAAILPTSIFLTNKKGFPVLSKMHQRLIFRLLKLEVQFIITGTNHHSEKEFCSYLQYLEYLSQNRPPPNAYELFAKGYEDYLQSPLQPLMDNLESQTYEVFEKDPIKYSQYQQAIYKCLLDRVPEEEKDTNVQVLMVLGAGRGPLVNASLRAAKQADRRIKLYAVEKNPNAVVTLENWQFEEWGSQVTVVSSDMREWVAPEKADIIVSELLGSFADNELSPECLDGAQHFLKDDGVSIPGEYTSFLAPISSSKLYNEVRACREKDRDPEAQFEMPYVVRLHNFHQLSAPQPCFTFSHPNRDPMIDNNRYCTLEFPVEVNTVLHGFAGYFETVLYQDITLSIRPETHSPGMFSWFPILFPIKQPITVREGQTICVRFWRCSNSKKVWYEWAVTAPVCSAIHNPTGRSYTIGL
PRMT5, sequence (Q9BQA1 whole entry partner): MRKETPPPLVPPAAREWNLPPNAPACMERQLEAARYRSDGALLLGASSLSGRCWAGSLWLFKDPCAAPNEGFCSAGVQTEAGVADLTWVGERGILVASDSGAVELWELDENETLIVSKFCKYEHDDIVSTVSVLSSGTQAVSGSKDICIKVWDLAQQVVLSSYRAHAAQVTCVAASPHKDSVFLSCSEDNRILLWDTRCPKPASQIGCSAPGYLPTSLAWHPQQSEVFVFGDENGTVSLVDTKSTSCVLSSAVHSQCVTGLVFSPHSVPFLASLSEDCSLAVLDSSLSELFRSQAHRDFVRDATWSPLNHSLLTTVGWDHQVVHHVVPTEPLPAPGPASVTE

## O=C(NC[C@H](O)CN1CCc2ccccc2C1)c1cc(NC2COC2)ncn1 [EPZ015666]
[1]; SF-172 isogenic pair
  differential sensitivity between isogenic MTAP− and MTAP+ cells: absent altogether
[1]; parental MTAP+ vs MTAP− cell lines
  difference in mean IC50 values between MTAP+ and MTAP− cell lines: did not observe significant differences
[2]
  mode of inhibition of PRMT5: peptide-competitive and SAM-cooperative
